System: NL4-3 strain of HIV-1
Test: Inhibition of HIV replication: cyto-protection in Cell-Titer-Glo viability assay, MT4 cells infected with NL4-3 virus
Format: cell-based
Details: Human immunodeficiency virus 1, NL43, 120 h, concentration leading to 50% of cyto-protection, 5 days incubation, CellTiter-Glo luminescence
Protocol: The antiviral activity, particularly against HIV, of compounds according to the invention is evaluated by the protocol described below.
Preparation of Virus Stock of the NL4-3 Strain of HIV-1 (Adachi et al, J Virol, 1986, 59(2):284-91).
The virus was prepared as described in Lopez et al (Lopez et al, Proc Natl Acad Sci USA., 2006, 103(40):14947-52, by transfecting 2×10^6 293 T cells (CRL-1573, ATCC) with following modifications: 6 μg of NL4-3 proviral DNA molecular clone were mixed with Fugene 6 transfection reagent from Roche, and used according to manufacturer's instructions. Forty eight hours later, transfected cell supernatants were harvested, filtered through 0.45-μm-pore-size filters, quantified for HIV-1 p24 antigen by using a Innotest HIV antigen mAb assay (Ingen) according to manufacturer's instructions, and used in infection experiments.
Serial dilutions of compounds to be tested were prepared in complete RPMI medium from 10 mM DMSO stock solutions, and distributed in a volume of 20 μL in 96 well Falcon 353072 Microtest™ tissue culture plate, in order to get 0.5% DMSO final concentration in each well, after the addition of infected cells. Control wells contained also 0.5% DMSO final concentration but no compound.
MT^4 cells (from the NIH AIDS Research and Reference Reagent Program) in RPMI complete medium were counted (10×10^6 cells per well in Falcon 353047 Multiwell™ 24 well) and infected for 2 hours at 37°, at a multiplicity of infection (moi) of 0.0001-0.00001. Cells were then centrifuged 3 min at 3000 rpm, and washed two times in 1 ml PBS to remove viruses that have not entered in cells. Infected cells were resuspended in complete RPMI at 1.25×10^6 cells/ml, and 80 μl of infected cells were distributed in each well containing compounds to be tested or control wells. The plates were then incubated at 37° for 5 days.
Assay Used to Measure the Inhibition of HIV Replication by the Compounds (According to (According to Gregg S. Jones et al., Antimicrobial Agents and Chemotherapy, 2009, 53 (3): 1194-1203).
After 5 days of incubation, 50 μl of CellTiter-Glo reagent (Promega Biosciences, Inc., Madison Wis., USA) were added to each well. Cell lysis was carried out at room temperature during 10 min, 150 μl of lysates were transferred in Packard Optiplate 96 well, and luminescence was read on a Fluoroskan (Thermo Scientific).
The EC50, or effective concentration 50, is the concentration of compound leading to 50% of cyto-protection in a Cell-Titer-Glo® viability assay based on MT^4 cells infected with NL4-3 virus (table 1).

Compound	EC50 [µM]
CC1(C)CC=C(c2c(-c3ccncc3)ccc(C(F)(F)F)c2C(OC(C)(C)C)C(=O)O)CC1 (stereo not shown) [Example 11, 2-(tert-butoxy)-2-[2-(4,4-dimethylcyclohex-1-en-1-yl)-3-(pyridin-4-yl)-6-(trifluoromethyl)phenyl]acetic acid]	0.91
Cc1ccc(-c2ccc(=O)n(CC3CCC3)c2)c(-c2ccc3c(c2C)CCCO3)c1C(OC(C)(C)C)C(=O)O (stereo not shown) [Example 37, 2-(tert-butoxy)-2-[3-(1-cyclobutylmethyl-6-oxo-1,6-dihydro-pyridin-3-yl)-6-methyl-2-[5-methyl-(3,4-dihydro-2H-1-benzopyran-6-yl)]phenyl]acetic acid]	0.31
CC(C)(C)OC(C(=O)O)c1c(C(F)(F)F)ccc(-c2cccc(C(N)=O)c2)c1-c1ccc2c(c1)CCCO2 (stereo not shown) [Example 14, 2-(tert-butoxy)-2-[3-(3-carbamoylphenyl)-2-(3,4-dihydro-2H-1-benzopyran-6-yl)-6-(trifluoromethyl)phenyl]acetic acid]	0.78
CC(=O)Nc1cccc(-c2ccc(C(F)(F)F)c(C(OC(C)(C)C)C(=O)O)c2-c2ccc3c(c2)CCCO3)c1 (stereo not shown) [Example 24, 2-(tert-butoxy)-2-[3-(3-acetamidophenyl)-2-(3,4-dihydro-2H-1-benzopyran-6-yl)-6-(trifluoromethyl)phenyl]acetic acid]	0.29
CC(C)(C)OC(C(=O)O)c1c(C(F)(F)F)ccc(-c2cnn3ccccc23)c1-c1ccc2c(c1)CCCO2 (stereo not shown) [Example 12, 2-(tert-butoxy)-2-[2-(3,4-dihydro-2H-1-benzopyran-6-yl)-3-{pyrazolo[1,5-a]pyridin-3-yl}-6-(trifluoromethyl)phenyl]acetic acid]	0.42
CNC(=O)c1ccc(-c2ccc(C(F)(F)F)c(C(OC(C)(C)C)C(=O)O)c2-c2ccc3c(c2)CCCO3)cc1 (stereo not shown) [Example 19, 2-(tert-butoxy)-2-[2-(3,4-dihydro-2H-1-benzopyran-6-yl)-3-[4-(methylcarbamoyl)phenyl]-6-(trifluoromethyl)phenyl]acetic acid]	0.33
CC(C)(C)OC(C(=O)O)c1c(C(F)(F)F)ccc(-c2ccccc2)c1-c1ccc2c(c1)CCCO2 (stereo not shown) [Example 1, 2-(tert-butoxy)-2-[2-(3,4-dihydro-2H-1-benzopyran-6-yl)-3-phenyl-6-(trifluoromethyl)phenyl]acetic acid]	0.26
CC(C)(C)OC(C(=O)O)c1c(C(F)(F)F)ccc(-c2ccc(=O)n(C3CC3)c2)c1-c1ccc2c(c1)CCCO2 (stereo not shown) [Example 39, 2-(tert-butoxy)-2-[3-(1-cyclopropyl-6-oxo-1,6-dihydropyridin-3-yl)-2-(3,4-dihydro-2H-1-benzopyran-6-yl)-6-(trifluoromethyl)phenyl]acetic acid]	0.33
CC(C)(C)OC(C(=O)O)c1c(C(F)(F)F)ccc(-c2cnn(CC(F)(F)F)c2)c1-c1ccc2c(c1)CCCO2 (stereo not shown) [Example 22, 2-(tert-butoxy)-2-{2-(3,4-dihydro-2H-1-benzopyran-6-yl)-3-[1-(2,2,2-trifluoroethyl)-1H-pyrazol-4-yl]-6-(trifluoromethyl)phenyl}acetic acid]	0.32
CC(C)(C)OC(C(=O)O)c1c(C(F)(F)F)ccc(-c2ccnc(OCc3ccccc3)c2)c1-c1ccc2c(c1)CCCO2 (stereo not shown) [Example 6, 2-{3-[2-(benzyloxy)pyridin-4-yl]-2-(3,4-dihydro-2H-1-benzopyran-6-yl)-6-(trifluoromethyl)phenyl}-2-(tert-butoxy)acetic acid]	0.26
CC(C)(C)OC(C(=O)O)c1c(C(F)(F)F)ccc(C2=CCCC2)c1-c1ccc2c(c1)CCCO2 (stereo not shown) [Example 3, 2-(tert-butoxy)-2-[3-(cyclopent-1-en-1-yl)-2-(3,4-dihydro-2H-1-benzopyran-6-yl)-6-(trifluoromethyl)phenyl]acetic acid]	0.4
CC(C)(C)OC(C(=O)O)c1c(C(F)(F)F)ccc(-c2ccncn2)c1-c1ccc2c(c1)CCCO2 (stereo not shown) [Example 16, 2-(tert-butoxy)-2-[2-(3,4-dihydro-2H-1-benzopyran-6-yl)-3-(pyrimidin-4-yl)-6-(trifluoromethyl)phenyl]acetic acid]	0.94
CCCc1cc(-c2ccc(C(F)(F)F)c(C(OC(C)(C)C)C(=O)O)c2-c2ccc3c(c2)CCCO3)ccn1 (stereo not shown) [Example 28, 2-(tert-butoxy)-2-[2-(3,4-dihydro-2H-1-benzopyran-6-yl)-3-(2-propylpyridin-4-yl)-6-(trifluoromethyl)phenyl]acetic acid]	0.078

Source: patent US9475802B2, “Inhibitors of viral replication, their process of preparation and their therapeutical uses” (LABORATOIRE BIODIM, priority 2012, dated 2016)
